The subject of data set [1] is macrophages and microglia in DRG tissues. In words: Immunofluorescence of macrophages and microglia in DRG tissues. The data set is classed as in vivo, mouse. The following applies: day 7. As for the experimental part:
DRG tissues were isolated on day 7 after first paclitaxel injection. The tissues were fixed in 4% paraformaldehyde at 4 °C overnight and subsequently placed in 30% sucrose for sample dehydration. During the frozen section procedure, the tissues were embedded in OCT (EMS; #14120) and sectioned into 20 μm thick slices. The DRG tissue sections were permeabilized with 0.1% Triton X-100 in PBS for 1 h and then blocked with CAS-Block solution (#008120; Thermo Fisher, USA) at room temperature for another 1 h. DRG tissue sections were stained with primary antibody against CD68 (1:100 dilution; Novus), NOS2 (1:100 dilution; Santa Cruz), Arginase-1 (1:100 dilution; Santa Cruz), and Iba-1 (1:100 dilution; Santa Cruz) at 4 °C overnight. Afterward, the samples were washed with PBS and stained with secondary antibodies (Alexa-488, 594, 1:200 dilution; Invitrogen) and Hoechst 33342 (4 μg/mL; Invitrogen) at room temperature for 1 h. A 60× objective by an Olympus FV3000 confocal microscope was used to acquire immunofluorescence images.

Data set [2] deals with mouse primary DRG neurons. In words: Neurite outgrowth assay of DRG neurons (image-based HCS) against paclitaxel-induced neurotoxicity. Format: cell-based. The conditions noted are these: for activation at 1 µM: Mus musculus, DRG neuron. In short, it runs like this:
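Mouse primary DRG neurons exposed to compound with 50 nM paclitaxel, then fixed and stained for β III tubulin (neurites), NeuN and Hoechst.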

A further data set has as its target T1, CYP 2C19 (Homo sapiens, UniProt P33261).
T1 construct: host or cells: baculovirus-infected insect cells (supersomes)
In words: Cytochrome P450 testing, CYP 2C19. The conditions noted are these: mephenytoin 4-hydroxylation; read-out: Concentration of inhibition (IC50), CYP 2C19. The data set is classed as in vitro ADME. From the text: Cytochrome P450 testing of CN016
The effects of CN016 on the activity of six specific human liver cytochrome P450 isozymes (CYP 1A2, 2C9, 2C19, 2D6, 2E1, 3A4) expressed in baculovirus-infected insect cell supersomes were studied. The reactions used to measure the activity of these enzymes were phenacetin O-deethylation (1A2), diclofenac 4-hydroxylation (2C9), mephenytoin 4-hydroxylation (2C19), dextromethorphan O-demethylation (2D6), chlorzoxazone 6-hydroxylation (2E1) and testosterone 6-hydroxylation (3A4).
Furafylline, sulfaphenazole, tranylcypromine, quinidine, diethyldithiocarbamate and azamulin were used as reference inhibitors of these enzymes. Incubation mixtures containing no CN016 or reference inhibitors were used as controls. The tested result […]
Table S4. Result of Cytochrome P450 testing of CN016

For data set [3], the target named is Serotonin (5-Hydroxytryptamine) 5-HT2B (Homo sapiens, UniProt P41595). The data set can be described thus: LeadProfilingScreen: Serotonin 5-HT2B. Format: binding. The conditions noted are these: read-out: Inhibition (%), Serotonin (5-Hydroxytryptamine) 5-HT2B. From the text: LeadProfilingScreen (Total # of Assays: 67)
Serotonin (5-Hydroxytryptamine) 5-HT2B, sequence (P41595 whole entry): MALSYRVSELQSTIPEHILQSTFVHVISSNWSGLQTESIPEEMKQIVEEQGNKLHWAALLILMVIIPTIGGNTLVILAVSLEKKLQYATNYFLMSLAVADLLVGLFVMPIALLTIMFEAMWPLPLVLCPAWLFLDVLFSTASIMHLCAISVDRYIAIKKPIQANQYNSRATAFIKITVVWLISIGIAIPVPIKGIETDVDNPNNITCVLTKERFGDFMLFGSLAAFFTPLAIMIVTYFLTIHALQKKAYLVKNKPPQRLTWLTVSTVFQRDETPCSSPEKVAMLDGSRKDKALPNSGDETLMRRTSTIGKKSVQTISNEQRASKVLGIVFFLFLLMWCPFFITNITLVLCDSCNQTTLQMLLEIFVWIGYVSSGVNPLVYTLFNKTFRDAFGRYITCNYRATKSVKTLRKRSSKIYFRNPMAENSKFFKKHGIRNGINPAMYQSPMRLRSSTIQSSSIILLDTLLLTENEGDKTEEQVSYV
To evaluate, in LeadProfilingScreen, the activity of test compound CN168 (Panlabs # 1251879). […]
Summary of Significant Results
Biochemical assay results are presented as the percent inhibition of specific binding or activity throughout the report.
All other results are expressed in terms of that assay's quantitation method.
• For primary assays, only the lowest concentration with a significant response judged by the assays' criteria, is […]
• Where applicable, either the secondary assay results with the lowest dose/concentration meeting the significance […]
• Unless otherwise requested, primary screening in duplicate with quantitative data (e.g., IC50 ± SEM, Ki ± SEM and nH) are shown where applicable for individual requested assays. In screening packages, primary screening in duplicate with semi-quantitative data (e.g., estimated IC50, Ki and nH) are shown where applicable (concentration range of 4 log units); available secondary functional assays are carried out ([…]) and MEC or MIC determined only if active in primary assays >50% at 1 log unit below initial test concentration. […]

A further data set relates to Thyroid Hormone. In words: LeadProfilingScreen: Thyroid Hormone. The data set is classed as binding, rat. The conditions noted are these: 10 μM.
A further data set addresses GABAB1A (Homo sapiens, UniProt Q9UBS5). The data set can be described thus: LeadProfilingScreen: GABAB1A. Format: binding.
The target of another data set is Endothelin ETB (Homo sapiens, UniProt P24530). In words: LeadProfilingScreen: Endothelin ETB. Format: binding.
Endothelin ETB, sequence (P24530 27-442): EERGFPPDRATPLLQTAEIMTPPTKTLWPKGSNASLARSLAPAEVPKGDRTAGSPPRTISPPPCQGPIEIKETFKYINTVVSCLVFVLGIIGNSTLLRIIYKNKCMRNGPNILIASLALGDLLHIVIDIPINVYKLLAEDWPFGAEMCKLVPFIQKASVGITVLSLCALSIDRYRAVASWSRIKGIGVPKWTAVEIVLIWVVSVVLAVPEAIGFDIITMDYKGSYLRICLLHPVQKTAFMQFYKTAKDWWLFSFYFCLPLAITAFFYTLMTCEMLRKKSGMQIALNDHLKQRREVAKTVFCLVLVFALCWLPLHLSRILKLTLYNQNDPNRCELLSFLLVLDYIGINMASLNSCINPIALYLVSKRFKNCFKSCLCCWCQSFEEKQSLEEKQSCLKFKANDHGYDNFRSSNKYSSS
Data set [4] has as its target Platelet Activating Factor (PAF) (Homo sapiens, UniProt P25105). The data set can be described thus: LeadProfilingScreen: Platelet Activating Factor (PAF). Format: binding.
A further data set addresses Adrenergic α1A (Homo sapiens, UniProt P35348). The data set can be described thus: LeadProfilingScreen: Adrenergic α1A. Format: binding.

Counter-ions that a name gives are not always drawn. Like-named read-outs stand apart in the source and are kept apart here.

GABAB1A, sequence (Q9UBS5 15-961 limits assumed): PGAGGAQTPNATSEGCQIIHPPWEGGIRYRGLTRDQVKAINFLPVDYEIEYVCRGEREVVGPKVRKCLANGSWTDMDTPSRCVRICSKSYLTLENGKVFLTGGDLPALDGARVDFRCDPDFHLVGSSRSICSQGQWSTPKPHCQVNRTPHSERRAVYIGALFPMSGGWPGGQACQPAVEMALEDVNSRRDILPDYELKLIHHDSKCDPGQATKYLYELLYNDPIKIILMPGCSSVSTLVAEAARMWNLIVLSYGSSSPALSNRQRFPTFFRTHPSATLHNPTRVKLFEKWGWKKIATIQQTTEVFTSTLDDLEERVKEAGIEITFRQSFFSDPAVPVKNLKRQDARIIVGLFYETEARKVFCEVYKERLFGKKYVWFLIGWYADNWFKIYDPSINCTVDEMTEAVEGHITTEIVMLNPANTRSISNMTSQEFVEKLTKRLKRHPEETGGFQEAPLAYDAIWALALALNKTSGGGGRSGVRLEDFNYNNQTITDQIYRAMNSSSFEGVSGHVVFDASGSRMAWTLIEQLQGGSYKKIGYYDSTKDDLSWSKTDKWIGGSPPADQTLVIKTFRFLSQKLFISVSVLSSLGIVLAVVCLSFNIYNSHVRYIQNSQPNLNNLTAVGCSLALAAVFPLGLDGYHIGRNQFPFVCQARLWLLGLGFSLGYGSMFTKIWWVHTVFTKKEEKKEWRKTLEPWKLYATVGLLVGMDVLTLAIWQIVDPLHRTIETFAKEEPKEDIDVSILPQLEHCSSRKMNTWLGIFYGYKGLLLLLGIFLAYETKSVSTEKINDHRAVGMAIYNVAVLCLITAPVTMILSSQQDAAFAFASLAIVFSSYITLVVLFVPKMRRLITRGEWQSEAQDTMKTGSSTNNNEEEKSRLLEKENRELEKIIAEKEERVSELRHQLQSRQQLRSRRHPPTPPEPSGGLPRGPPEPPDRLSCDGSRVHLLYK
GABAB1A, sequence (O75899 42-941 partner): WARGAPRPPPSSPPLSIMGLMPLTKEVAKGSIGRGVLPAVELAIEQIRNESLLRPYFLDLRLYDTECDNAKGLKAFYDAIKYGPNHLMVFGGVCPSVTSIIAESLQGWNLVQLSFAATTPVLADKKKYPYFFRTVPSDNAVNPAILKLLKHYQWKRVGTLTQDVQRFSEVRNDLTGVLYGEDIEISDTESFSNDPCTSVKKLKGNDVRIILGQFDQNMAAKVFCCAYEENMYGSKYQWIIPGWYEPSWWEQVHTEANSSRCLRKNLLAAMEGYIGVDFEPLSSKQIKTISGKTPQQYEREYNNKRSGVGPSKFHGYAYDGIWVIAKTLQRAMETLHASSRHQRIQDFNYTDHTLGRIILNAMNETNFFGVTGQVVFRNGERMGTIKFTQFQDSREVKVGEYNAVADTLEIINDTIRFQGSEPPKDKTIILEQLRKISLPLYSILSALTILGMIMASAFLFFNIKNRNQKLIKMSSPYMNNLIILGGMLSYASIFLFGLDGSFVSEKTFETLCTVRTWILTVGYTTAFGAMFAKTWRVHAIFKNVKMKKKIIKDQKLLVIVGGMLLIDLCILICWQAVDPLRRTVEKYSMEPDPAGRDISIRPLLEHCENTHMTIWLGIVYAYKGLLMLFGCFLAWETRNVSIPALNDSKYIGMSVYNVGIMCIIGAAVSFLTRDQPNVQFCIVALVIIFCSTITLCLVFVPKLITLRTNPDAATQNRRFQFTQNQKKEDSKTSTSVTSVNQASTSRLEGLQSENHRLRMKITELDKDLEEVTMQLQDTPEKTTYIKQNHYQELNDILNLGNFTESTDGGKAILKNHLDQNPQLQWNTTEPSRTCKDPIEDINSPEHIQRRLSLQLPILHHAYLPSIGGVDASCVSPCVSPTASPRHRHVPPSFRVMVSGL
Platelet Activating Factor (PAF), sequence (P25105 whole entry): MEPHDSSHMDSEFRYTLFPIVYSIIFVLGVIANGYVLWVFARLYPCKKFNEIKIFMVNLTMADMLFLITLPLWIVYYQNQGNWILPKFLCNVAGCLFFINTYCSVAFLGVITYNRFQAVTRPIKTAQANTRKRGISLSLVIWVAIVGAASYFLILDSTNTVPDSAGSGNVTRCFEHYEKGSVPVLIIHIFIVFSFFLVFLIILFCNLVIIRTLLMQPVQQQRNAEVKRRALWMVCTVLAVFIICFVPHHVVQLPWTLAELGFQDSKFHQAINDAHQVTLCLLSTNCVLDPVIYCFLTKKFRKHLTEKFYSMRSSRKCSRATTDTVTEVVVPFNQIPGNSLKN
Adrenergic α1A, sequence (P35348 whole entry): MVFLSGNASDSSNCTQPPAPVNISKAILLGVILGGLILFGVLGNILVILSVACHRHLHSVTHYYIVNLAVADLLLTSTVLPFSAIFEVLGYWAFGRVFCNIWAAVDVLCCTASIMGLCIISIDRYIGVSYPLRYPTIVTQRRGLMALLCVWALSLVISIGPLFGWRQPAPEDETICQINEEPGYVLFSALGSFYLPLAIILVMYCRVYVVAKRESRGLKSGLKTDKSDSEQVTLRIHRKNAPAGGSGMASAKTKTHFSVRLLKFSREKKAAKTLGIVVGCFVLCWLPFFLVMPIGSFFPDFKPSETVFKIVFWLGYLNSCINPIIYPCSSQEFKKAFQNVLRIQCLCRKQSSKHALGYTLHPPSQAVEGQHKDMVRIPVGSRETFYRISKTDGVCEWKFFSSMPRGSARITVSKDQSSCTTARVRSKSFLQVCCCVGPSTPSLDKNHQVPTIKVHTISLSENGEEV
T1 sequence (P33261 whole entry): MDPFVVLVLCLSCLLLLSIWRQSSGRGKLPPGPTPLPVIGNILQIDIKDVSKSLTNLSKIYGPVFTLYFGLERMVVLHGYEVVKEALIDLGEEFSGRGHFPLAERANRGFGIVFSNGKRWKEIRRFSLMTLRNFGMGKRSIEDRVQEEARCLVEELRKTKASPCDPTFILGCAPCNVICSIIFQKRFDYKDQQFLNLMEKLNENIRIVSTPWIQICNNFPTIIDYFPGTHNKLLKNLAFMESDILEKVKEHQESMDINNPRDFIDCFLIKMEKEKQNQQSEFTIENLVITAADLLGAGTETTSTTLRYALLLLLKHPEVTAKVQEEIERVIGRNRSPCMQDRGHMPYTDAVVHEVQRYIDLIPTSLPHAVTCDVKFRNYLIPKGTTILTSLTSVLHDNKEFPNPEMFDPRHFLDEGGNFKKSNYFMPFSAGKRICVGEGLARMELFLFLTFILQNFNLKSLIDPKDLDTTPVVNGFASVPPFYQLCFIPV

With `O=P(O)(O)CCN1CCC(Nc2cc(N3CCOCC3)nc(NCc3cn(CCCO)nn3)n2)CC1` [CN016, {2-[4-(2-{[1-(3-Hydroxy-propyl)-1H-[1,2,3]triazol-4-ylmethyl]-amino}-6-morpholin-4-yl-pyrimidin-4-ylamino)-piperidin-1-yl]-ethyl}-phosphonic Acid Hydrobromide Salt], the “infiltration of M1 and M2 macrophages in DRG tissues” value in data set [1] (CN016 10 or 20 mg/kg before paclitaxel) is recorded as “significantly diminished”. Further, in [1] (CN016 low dosage), the “paclitaxel-induced M1 and M2 macrophages recruitment” value is reported as “failed to inhibit”. Besides, in data set [1], the “paclitaxel-induced activation of M1 microglia in DRG neurons” value is reported as “dramatically reduce”. The activation at 1 µM in data set [2] (Table 1, A: neurite outgrowth (% of control) of test compound 1000 nM + paclitaxel 50 nM, B: paclitaxel 50 nM alone, DRG neurons, read-out: Neuroprotection rate = (A-B)±S.E.M [%]) was found to be 21%; in data set [2] (Table S2, test compound 1000 nM + paclitaxel 50 nM minus paclitaxel 50 nM, read-out: Neuroprotection rate = (A-B) ± S.E.M [%]), 21 ± 0.77%; in data set [2] (supplementary CSV, test compound 1000 nM, read-out: A-B (A: neurite outgrowth (% of control) of test compound (1000 nM) + paclitaxel (50 nM), B: of paclitaxel (50 nM))), 21%. For the same molecule, in data set [2] (neurite outgrowth assay), the “in vitro effective concentration” value is given as 10 nM. In data set [2] (pretreated, + 50 nM paclitaxel, DRG neurons), the “protective efficacy against paclitaxel-induced neurotoxicity (in words)” value is listed as “exhibited protective efficacy”. Besides, the “increase of neurite length compared to the positive control (paclitaxel-treated alone)” value in data set [2] (pretreated, + 50 nM paclitaxel, Figure 3B) is recorded as 24–28%. Further, the IC50 on CYP 2C19 is more than 100 µM. Moreover, the inhibition – broadly, the relative decrease from the control value, in per cent – at 10 µM is 10% in data set [3]; 14% against GABAB1A; -1% against Endothelin ETB; -6% in [4]; -9% against Adrenergic α1A. In addition, in the data set with Thyroid Hormone, the “Inhibition (%), Thyroid Hormone” value turned out to be 7%.
